# Structures can show the parent of a compound that is named as a salt.
# Target: human FLAP (Homo sapiens (Human), UniProt P20292)
# Experiment: FLAP binding assay (HTRF format)
# Conditions: human FLAP wild type membranes, HTRF format; Table 6 (additional runs)
# Method: The ability of the compounds of the present invention to treat a FLAP-mediated disease and/or disorder, or associated symptoms or complications thereof, was determined using the following procedures. Binding assay data represent the average value obtained from two different assay plates, with samples run in duplicate on each plate. Human whole blood assay data represent a single replicate on an assay plate using whole blood from at least one healthy donor.
# Data are expressed as a HTRF ratio.
# Sequence of human FLAP (P20292 whole entry): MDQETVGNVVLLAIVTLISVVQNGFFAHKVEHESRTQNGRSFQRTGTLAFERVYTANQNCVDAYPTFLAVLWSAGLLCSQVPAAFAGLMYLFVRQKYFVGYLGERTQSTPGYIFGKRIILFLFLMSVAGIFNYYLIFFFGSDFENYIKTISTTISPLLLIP
row,Compound,Ki
1,"Nc1cnc(-c2ccc(C3CCC3)c(Oc3nccc(-c4cccs4)n3)c2F)cn1 [Example 91, 5-{4-Cyclobutyl-2-fluoro-3-[(4-thiophen-2-ylpyrimidin-2-yl)oxy]phenyl}pyrazin-2-amine]",0.8 nM
2,"COc1ccnc(Oc2c(C3CCC3)ccc(-c3cnc(N)cn3)c2F)n1 [Example 93, 5-{4-Cyclobutyl-2-fluoro-3-[(4-methoxypyrimidin-2-yl)oxy]phenyl}pyrazin-2-amine]",5.2 nM
3,"COc1cnc(Oc2c(C3CCC3)ccc(-c3cnc(N)cn3)c2F)nc1 [Example 94, 5-{4-Cyclobutyl-2-fluoro-3-[(5-methoxypyrimidin-2-yl)oxy]phenyl}pyrazin-2-amine]",44.5 nM
4,"CS(=O)(=O)c1ccnc(Oc2c(C3CCC3)ccc(-c3cnc(N)cn3)c2F)n1 [Example 95, 5-(4-Cyclobutyl-2-fluoro-3-{[4-(methylsulfonyl)pyrimidin-2-yl]oxy}phenyl)pyrazin-2-amine]",4.7 nM
5,"COc1cc(Oc2c(C3CCC3)ccc(-c3cnc(N)cn3)c2F)nc(N)n1 [Example 99, 4-[3-(5-Aminopyrazin-2-yl)-6-cyclobutyl-2-fluorophenoxy]-6-methoxypyrimidin-2-amine]",5.5 nM
6,"COc1nc(N)cc(Oc2c(C3CCC3)ccc(-c3cnc(N)cn3)c2F)n1 [Example 100, 6-[3-(5-Aminopyrazin-2-yl)-6-cyclobutyl-2-fluorophenoxy]-2-methoxypyrimidin-4-amine]",1.2 nM
7,"Nc1cnc(-c2ccc(C3CCC3)c(Oc3cccc(C(F)(F)F)n3)c2F)cn1 [Example 102, 5-(4-Cyclobutyl-2-fluor-3-{[6-(trifluoromethyl)pyridin-2-yl]oxy}phenyl)pyrazin-2-amine]",1.8 nM
8,"Nc1cnc(-c2ccc(C3CCC3)c(Oc3ncc(C(F)(F)F)cn3)c2F)cn1 [Example 104, 5-(4-Cyclobutyl-2-fluoro-3-{[5-(trifluoromethyl)pyrimidin-2-yl]oxy}phenyl)pyrazin-2-amine]",18.3 nM
9,"Nc1cnc(-c2ccc(C3CCC3)c(Oc3cnc(C(F)(F)F)cn3)c2F)cn1 [Example 105, 5-(4-Cyclobutyl-2-fluoro-3-{[5-(trifluoromethyl)pyrazin-2-yl]oxy}phenyl)pyrazin-2-amine]",39.4 nM
10,"Nc1cnc(-c2ccc(C3CCC3)c(Oc3ccc(C(F)(F)F)nn3)c2F)cn1 [Example 106, 5-(4-Cyclobutyl-2-fluoro-3-{[6-(trifluoromethyl)pyridazin-3-yl]oxy}phenyl)pyrazin-2-amine]",12.3 nM
11,"COC(=O)c1ccc(Oc2c(C3CCC3)ccc(-c3cnc(N)cn3)c2F)nc1 [Example 107, Methyl 6-[3-(5-aminopyrazin-2-yl)-6-cyclobutyl-2-fluorophenoxy]pyridine-3-carboxylate]",5.4 nM
12,"N#Cc1ccc(Oc2c(C3CCC3)ccc(-c3cnc(N)cn3)c2F)cn1 [Example 108, 5-[3-(5-Aminopyrazin-2-yl)-6-cyclobutyl-2-fluorophenoxy]pyridine-2-carbonitrile]",28.1 nM
13,"N#Cc1cc(Oc2c(C3CCC3)ccc(-c3cnc(N)cn3)c2F)ccn1 [Example 109, 4-[3-(5-Aminopyrazin-2-yl)-6-cyclobutyl-2-fluorophenoxy]pyridine-2-carbonitrile]",11.2 nM
14,"N#Cc1cccnc1Oc1c(C2CCC2)ccc(-c2cnc(N)cn2)c1F [Example 110, 2-[3-(5-Aminopyrazin-2-yl)-6-cyclobutyl-2-fluorophenoxy]pyridine-3-carbonitrile]",2.6 nM
15,"N#Cc1cccc(Oc2c(C3CCC3)ccc(-c3cnc(N)cn3)c2F)n1 [Example 111, 6-[3-(5-Aminopyrazin-2-yl)-6-cyclobutyl-2-fluorophenoxy]pyridine-2-carbonitrile]",2.4 nM
16,"N#Cc1ncccc1Oc1c(C2CCC2)ccc(-c2cnc(N)cn2)c1F [Example 112, 3-[3-(5-Aminopyrazin-2-yl)-6-cyclobutyl-2-fluorophenoxy]pyridine-2-carbonitrile]",13.6 nM
17,"Nc1cnc(-c2ccc(C3CCC3)c(Oc3ccc(C(F)(F)F)cn3)c2F)cn1 [Example 113, 5-(4-Cyclobutyl-2-fluoro-3-{[5-(trifluoromethyl)pyridin-2-yl]oxy}phenyl)pyrazin-2-amine]",30.8 nM
18,"Nc1cnc(-c2ccc(C3CCC3)c(Oc3ccc(S(F)(F)(F)(F)F)cc3)c2F)cn1 [Example 115, 5-{4-Cyclobutyl-2-fluoro-3-[4-(pentafluoro-lambda˜6˜-sulfanyl)phenoxy]phenyl}pyrazin-2-amine]",53.7 nM
19,"Nc1cnc(-c2ccc(C3CCC3)c(Oc3nccc(N)n3)c2F)cn1 [Example 119, 2-[3-(5-Aminopyrazin-2-yl)-6-cyclobutyl-2-fluorophenoxy]pyrimidin-4-amine]",6.6 nM
20,"Nc1cnc(-c2ccc(C3CCC3)c(Oc3ncccc3C(F)(F)F)c2F)cn1 [Example 121, 5-(4-Cyclobutyl-2-fluoro-3-{[3-(trifluoromethyl)pyridin-2-yl]oxy}phenyl)pyrazin-2-amine]",7.2 nM

row,Compound,Ki
1,Nc1cnc(-c2ccc(C3CCC3)c(Oc3ncccc3Cl)c2F)cn1 [Example 122],3.7 nM
2,"Nc1cnc(-c2ccc(C3CCC3)c(Oc3ccnc(C(F)(F)F)n3)c2F)cn1 [Example 124, 5-(4-Cyclobutyl-2-fluoro-3-{[2-(trifluoromethyl)pyrimidin-4-yl]oxy}phenyl)pyrazin-2-amine]",2.8 nM
3,"Cc1nccc(Oc2c(C3CCC3)ccc(-c3cnc(N)cn3)c2F)n1 [Example 134, 5-{4-Cyclobutyl-2-fluoro-3-[(2-methylpyrimidin-4-yl)oxy]phenyl}pyrazin-2-amine]",4.6 nM
4,"Nc1cnc(-c2ccc(C3CCC3)c(Oc3ccnc(Cl)n3)c2F)cn1 [Example 137, 5-{3-[(2-Chloropyrimidin-4-yl)oxy]-4-cyclobutyl-2-fluorophenyl}pyrazin-2-amine]",4.3 nM
5,"Nc1cnc(-c2ccc(C3CCC3)c(Oc3cc(C4CC4)ncn3)c2F)cn1 [Example 141, 5-{4-Cyclobutyl-3-[(6-cyclopropylpyrimidin-4-yl)oxy]-2-fluorophenyl}pyrazin-2-amine]",5.5 nM
6,"Nc1cnc(-c2ccc(C3CCC3)c(Oc3ccc(C(=O)O)cn3)c2F)cn1 [Example 154, 6-[3-(5-Aminopyrazin-2-yl)-6-cyclobutyl-2-fluorophenoxy]pyridine-3-carboxylic acid]",17.6 nM
7,"N#Cc1nc(N)cnc1-c1ccc(C2CCC2)c(OCc2cccc(C(=O)O)c2)c1F [Example 174, 3-{[3-(5-Amino-3-cyanopyrazin-2-yl)-6-cyclobutyl-2-fluorophenoxy]methyl}benzoic acid]",3.9 nM
8,"COc1cc(Oc2c(C(C)(C)C)ccc(-c3cnc(N)cn3)c2F)ncn1 [Example 204, 5-{4-tert-Butyl-2-fluor-3-[(6-methoxypyrimidin-4-yl)oxy]phenyl}pyrazin-2-amine]",8.5 nM
9,"CC(C)(C)c1ccc(-c2cnc(N)cn2)cc1OCc1ccccc1 [Example 215, 5-[3-(Benzyloxy)-4-tert-butylphenyl]pyrazin-2-amine]",705 nM
10,"Nc1cnc(-c2ccc(Cl)c(OCc3ccccc3)c2F)cn1 [Example 216, 5-[3-(Benzyloxy)-4-chloro-2-fluorophenyl]pyrazin-2-amine]",714 nM
11,"Nc1cnc(-c2ccc(C3CCC3)c(OCc3ccccc3)c2)cn1 [Example 217, 5-[3-(Benzyloxy)-4-cyclobutylphenyl]pyrazin-2-amine]",1040 nM
12,"CC(C)(C)OC(=O)N1CCCC(COc2c(C3CCC3)ccc(-c3cnc(N)cn3)c2F)C1 (stereo not drawn) [Example 249, tert-Butyl 3-((3-(5-aminopyrazin-2-yl)-6-cyclobutyl-2-fluorophenoxy)methyl)piperidine-1-carboxylate]",282 nM
13,"CC(C)CNc1nccc(Oc2c(C3CCC3)ccc(-c3cnc(N)cn3)c2F)n1 [Example 261, 4-(3-(5-Aminopyrazin-2-yl)-6-cyclobutyl-2-fluorophenoxy)-N-isobutylpyrimidin-2-amine trifluoroacetic acid salt]",2.2 nM
14,"Nc1cnc(-c2ccc(C3CCC3)c(OCC3CCOCC3)c2F)cn1 [Example 264, 5-[4-Cyclobutyl-2-fluoro-3-(tetrahydro-2H-pyran-4-ylmethoxy)phenyl]pyrazin-2-amine]",101 nM
15,"Nc1cnc(-c2ccc(C3CCC3)c(OCC3CCNCC3)c2F)cn1 [Example 298, 5-[4-Cyclobutyl-2-fluoro-3-(piperidin-4-ylmethoxy)phenyl]pyrazin-2-amine hydrogen chloride salt]",868 nM
16,"CCc1ccc(-c2cnc(N)cn2)c(F)c1Oc1ncccn1 [Example 316, 5-[4-Ethyl-2-fluoro-3-(pyrimidin-2-yloxy)phenyl]pyrazin-2-amine]",1360 nM
17,"Nc1cnc(-c2ccc(C3CCCCC3)c(Oc3ncccn3)c2F)cn1 [Example 320, 5-(4-Cyclohexyl-2-fluoro-3-(pyrimidin-2-yloxy)phenyl)pyrazin-2-amine]",36.5 nM
18,"CCc1ccc(-c2cnc(N)cn2)c(F)c1O [Example 333, 3-(5-Aminopyrazin-2-yl)-6-ethyl-2-fluorophenol]",421 nM
19,"Nc1cnc(-c2ccc(C3CCC3)c(OCc3ccc(Br)cc3)c2F)cn1 [Example 340, 5-{3-[(4-Bromobenzyl)oxy]4-cyclobutyl-2-fluorophenyl}pyrazin-2-amine]",650 nM

# From patent publication US9732093B2, “FLAP modulators” (JANSSEN PHARMACEUTICA NV, priority 2013, dated 2017)
